# Reference: PubChem BioAssay AID248 (DTP/NCI, 2004)
# Where “and” joins values, the source holds several entries; their conditions need not be identical. Identical values can stand only once. Toxic doses and inconclusive results are not listed.
# Tested on: L1210 leukemia ip in BDF1 mice, survival T/C
# Assay: NCI In Vivo Anticancer Drug Screen. Data for tumor model L1210 Leukemia (intraperitoneal) in B6D2F1 (BDF1) mice
# Conditions: endpoint: mean survival time, higher = longer survival
# Summary of the method: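 Ratio derived from survival: compound-dosed mice over vehicle-dosed mice, all bearing a transplantable tumor.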
# [1] = dose: 100.0 mg/kg/injection, schedule: Q04DX003 (ip), vehicle: saline with Tween-80
# [2] = dose: 200.0 mg/kg/injection, schedule: Q04DX003 (ip), vehicle: saline with Tween-80
# [3] = dose: 400.0 mg/kg/injection, schedule: Q04DX003 (ip), vehicle: saline with Tween-80
# [4] = dose: 25.0 mg/kg/injection, schedule: Q04DX002 (ip), vehicle: saline
# [5] = dose: 50.0 mg/kg/injection, schedule: Q04DX002 (ip), vehicle: saline
# [6] = dose: 50.0 mg/kg/injection, schedule: Q01DX009 (ip), vehicle: Klucel (hydroxypropylcellulose) (HPC)
# [7] = dose: 100.0 mg/kg/injection, schedule: Q01DX009 (ip), vehicle: Klucel (hydroxypropylcellulose) (HPC)
# [8] = dose: 100.0 mg/kg/injection, schedule: Q01DX009 (ip), vehicle: saline with Tween-80
# [9] = dose: 200.0 mg/kg/injection, schedule: Q01DX009 (ip), vehicle: saline with Tween-80
# [10] = dose: 100.0 mg/kg/injection, schedule: Q04DX003 (ip), vehicle: Klucel (hydroxypropylcellulose) (HPC)
# [11] = dose: 200.0 mg/kg/injection, schedule: Q04DX003 (ip), vehicle: Klucel (hydroxypropylcellulose) (HPC)
# [12] = dose: 400.0 mg/kg/injection, schedule: Q04DX003 (ip), vehicle: Klucel (hydroxypropylcellulose) (HPC)
# [13] = dose: 200.0 mg/kg/injection, schedule: Q01DX009 (ip), vehicle: Klucel (hydroxypropylcellulose) (HPC)
# [14] = dose: 400.0 mg/kg/injection, schedule: Q01DX009 (ip), vehicle: Klucel (hydroxypropylcellulose) (HPC)
# [15] = dose: 100.0 mg/kg/injection, schedule: Q01DX001 (ip), vehicle: carboxymethylcellulose (CMC)
# [16] = dose: 200.0 mg/kg/injection, schedule: Q01DX001 (ip), vehicle: carboxymethylcellulose (CMC)
# [17] = dose: 400.0 mg/kg/injection, schedule: Q01DX001 (ip), vehicle: carboxymethylcellulose (CMC)
# [18] = dose: 400.0 mg/kg/injection, schedule: Q01DX009 (ip), vehicle: saline with Tween-80
smiles,measurement,setting,value
CC(/C=C/c1ccccc1)=N\O,T/C,"dose: 100.0 mg/kg/injection, schedule: Q01DX009 (ip), vehicle: saline sonified",91 % of control
same,T/C,"dose: 200.0 mg/kg/injection, schedule: Q01DX009 (ip), vehicle: saline sonified",94 % of control
same,T/C,"dose: 400.0 mg/kg/injection, schedule: Q01DX009 (ip), vehicle: saline sonified",100 % of control
CC1(C)CC2(OC2c2ccccc2)C(C)(O)c2ccccc21 (configuration not stated),T/C,[1],98 % of control
same,T/C,[2],104 % of control
same,T/C,[3],96 % of control
COc1cc(CC2COC(=O)C2Cc2ccc(OC3OC(CO)C(O)C(O)C3O)c(OC)c2)ccc1O (configuration not stated),T/C,[4],111 % of control
same,T/C,[5],104 % of control
same,T/C,"dose: 100.0 mg/kg/injection, schedule: Q04DX002 (ip), vehicle: saline",107 % of control
N#Cc1c(=O)[nH]c2ccccc2[n+]1[O-],T/C,[6],107 % of control
same,T/C,[7],104 % of control
Clc1ccc2c(NCCc3cnc[nH]3)ccnc2c1,T/C,[8],94 % of control
same,T/C,[9],94 % of control
CCN(CC)CCOc1ccc(C=Nc2ccc(I)cc2)cc1,T/C,"dose: 100.0 mg/kg/injection, schedule: Q04DX003 (ip), vehicle: other",97 % of control
same,T/C,"dose: 200.0 mg/kg/injection, schedule: Q04DX003 (ip), vehicle: other",98 % of control
same,T/C,"dose: 400.0 mg/kg/injection, schedule: Q04DX003 (ip), vehicle: other",95 % of control
Cc1ccccc1OC(=O)c1ccccc1,T/C,[1],107 % of control
same,T/C,[2],104 % of control
same,T/C,[3],104 % of control
O=S(=O)([O-])O.O=S(O)S(=O)O.[Co+3].[NH2-].[NH2-].[NH2-].[NH2-].[NH2-],T/C,[4],91 % of control
same,T/C,[5],97 % of control
CCOC(=O)Nc1cc2n[nH]nc2c(NC(c2ccccc2)c2ccccc2)n1,T/C,[1],94 % of control
same,T/C,[2],87 % of control
same,T/C,[3],92 % of control
O=c1[nH]nc(SCc2ccccc2)c(=S)[nH]1,T/C,"dose: 100.0 mg/kg/injection, schedule: Q01DX001 (ip), vehicle: other",119 % of control
same,T/C,"dose: 177.0 mg/kg/injection, schedule: Q01DX001 (ip), vehicle: other",104 % of control
same,T/C,"dose: 200.0 mg/kg/injection, schedule: Q01DX001 (ip), vehicle: other",156 % of control
same,T/C,"dose: 200.0 mg/kg/injection, schedule: Q01DX005 (ip), vehicle: other",92 % of control
same,T/C,"dose: 266.0 mg/kg/injection, schedule: Q01DX001 (ip), vehicle: other",101 % of control
same,T/C,"dose: 300.0 mg/kg/injection, schedule: Q01DX005 (ip), vehicle: other",95 % of control
O=C(O)COc1ccc(Cl)cc1,T/C,[10],97 % of control
same,T/C,[11],100 % of control
same,T/C,[12],100 % of control
CCOC(=O)c1nnc(CC)[nH]c1=O,T/C,"dose: 100.0 mg/kg/injection, schedule: Q01DX001 (ip), vehicle: Klucel (hydroxypropylcellulose) (HPC)",106 % of control
same,T/C,"dose: 200.0 mg/kg/injection, schedule: Q01DX001 (ip), vehicle: Klucel (hydroxypropylcellulose) (HPC)",111 % of control
same,T/C,"dose: 400.0 mg/kg/injection, schedule: Q01DX001 (ip), vehicle: Klucel (hydroxypropylcellulose) (HPC)",90 % of control
CCOC(=O)C1(C(=O)OCC)CCC(OCC)N1C(=O)c1ccccc1[N+](=O)[O-] (configuration not stated),T/C,"dose: 25.0 mg/kg/injection, schedule: Q04DX003 (ip), vehicle: Klucel (hydroxypropylcellulose) (HPC)",94 % of control
same,T/C,"dose: 50.0 mg/kg/injection, schedule: Q04DX003 (ip), vehicle: Klucel (hydroxypropylcellulose) (HPC)",99 % of control
same,T/C,[10],89 % of control
C/C(=N/NC(N)=O)C1CC2CCC1CC2 (configuration not stated),T/C,[6],102 % of control
same,T/C,[7],93 % of control
same,T/C,[13],89 % of control
CCOC(C)C(/C=N/Nc1ccccc1)=N\Nc1ccccc1 (configuration not stated),T/C,"dose: 15.0 mg/kg/injection, schedule: Q01DX Z (ip), vehicle: carboxymethylcellulose (CMC)",98 % of control
same,T/C,"dose: 30.0 mg/kg/injection, schedule: Q01DX Z (ip), vehicle: carboxymethylcellulose (CMC)",97 % of control
same,T/C,"dose: 60.0 mg/kg/injection, schedule: Q01DX Z (ip), vehicle: carboxymethylcellulose (CMC)",97 % of control
same,T/C,"dose: 120.0 mg/kg/injection, schedule: Q01DX Z (ip), vehicle: carboxymethylcellulose (CMC)",92 % of control
O=C(/C(=C/c1ccc(Cl)cc1)c1ccccc1)c1ccc(O)cc1,T/C,"dose: 200.0 mg/kg/injection, schedule: Q01DX001 (ip), vehicle: saline",92 % of control
same,T/C,"dose: 400.0 mg/kg/injection, schedule: Q01DX001 (ip), vehicle: saline",86 % of control
CCOC(=O)c1cc(Cl)nc2ccc3ccccc3c12,T/C,[7],101 % of control
same,T/C,[13],97 % of control
same,T/C,[14],96 % of control
O=C1OC(=O)C2C3C=CC(C3)C12 (configuration not stated),T/C,"dose: 12.5 mg/kg/injection, schedule: Q01DX009 (ip), vehicle: saline with Tween-80",97 % of control
same,T/C,"dose: 25.0 mg/kg/injection, schedule: Q01DX009 (ip), vehicle: Klucel (hydroxypropylcellulose) (HPC)",100 % of control
same,T/C,"dose: 25.0 mg/kg/injection, schedule: Q01DX009 (ip), vehicle: saline with Tween-80",100 % of control
same,T/C,"dose: 50.0 mg/kg/injection, schedule: Q01DX001 (ip), vehicle: carboxymethylcellulose (CMC)",104 % of control
same,T/C,[6],96 % of control
same,T/C,"dose: 50.0 mg/kg/injection, schedule: Q01DX009 (ip), vehicle: saline with Tween-80",96 % of control
same,T/C,[15],106 % of control and 96 % of control
same,T/C,[7],105 % of control and 87 % of control
same,T/C,[8],90 % of control
same,T/C,[10],102 % of control
same,T/C,[1],98 % of control
same,T/C,[16],104 % of control and 91 % of control
same,T/C,[9],92 % of control
same,T/C,[11],89 % of control
same,T/C,[2],98 % of control
same,T/C,[17],95 % of control and 96 % of control
same,T/C,[18],88 % of control
same,T/C,[3],97 % of control
Cc1ccccc1NC(=O)Oc1ccc(Cl)cc1Cl,T/C,"dose: 100.0 mg/kg/injection, schedule: Q04DX002 (ip), vehicle: gum acacia",107 % of control
same,T/C,"dose: 200.0 mg/kg/injection, schedule: Q04DX002 (ip), vehicle: gum acacia",100 % of control
same,T/C,"dose: 400.0 mg/kg/injection, schedule: Q04DX002 (ip), vehicle: gum acacia",104 % of control
c1csc(C2SC(c3cccs3)SC(c3cccs3)S2)c1 (configuration not stated),T/C,[15],100 % of control
same,T/C,[16],92 % of control
same,T/C,[17],95 % of control
O=[N+]([O-])c1ccc(SNc2ccc(NSc3ccc([N+](=O)[O-])cc3)cc2)cc1,T/C,"dose: 25.0 mg/kg/injection, schedule: Q01DX001 (ip), vehicle: saline with Tween-80",96 % of control
same,T/C,"dose: 50.0 mg/kg/injection, schedule: Q01DX001 (ip), vehicle: saline with Tween-80",100 % of control
Clc1cccc(Cl)c1/C=N/N1CCN(/N=C/c2c(Cl)cccc2Cl)CC1,T/C,[15],91 % of control
same,T/C,[16],89 % of control
same,T/C,[17],91 % of control
Cc1ccc(N2C=[N+](C)c3ccc(C)cc3C2)cc1,T/C,[10],100 % of control
same,T/C,[11],97 % of control
Nc1c2c(=O)[nH]c(=O)c2c(N)c2c(=O)c3ccccc3c(=O)c12,T/C,"dose: 100.0 mg/kg/injection, schedule: Q01DX001 (ip), vehicle: acetone",93 % of control
same,T/C,"dose: 200.0 mg/kg/injection, schedule: Q01DX001 (ip), vehicle: acetone",103 % of control
same,T/C,"dose: 400.0 mg/kg/injection, schedule: Q01DX001 (ip), vehicle: acetone",103 % of control
O=C(c1ccccc1[N+](=O)[O-])C(Br)C(Br)c1ccc2c(c1)OCO2 (configuration not stated),T/C,[8],97 % of control and 87 % of control
same,T/C,[9],94 % of control and 95 % of control
same,T/C,[18],97 % of control
COc1ccc(-c2nc3ccccc3s2)cc1OC,T/C,[10],95 % of control and 105 % of control
same,T/C,[11],98 % of control and 102 % of control
same,T/C,[12],98 % of control and 105 % of control
N#CCC(=O)Nc1ccccc1,T/C,[7],95 % of control
same,T/C,"dose: 100.0 mg/kg/injection, schedule: Q04DX002 (ip), vehicle: Klucel (hydroxypropylcellulose) (HPC)",109 % of control
same,T/C,[13],103 % of control
same,T/C,"dose: 200.0 mg/kg/injection, schedule: Q04DX002 (ip), vehicle: Klucel (hydroxypropylcellulose) (HPC)",109 % of control
same,T/C,[14],114 % of control
same,T/C,"dose: 400.0 mg/kg/injection, schedule: Q04DX002 (ip), vehicle: Klucel (hydroxypropylcellulose) (HPC)",106 % of control
